Measured values as given in patent publication US8674095B2, “Compounds for treating neuropsychiatric conditions” (Afraxis Holdings, Inc., priority 2008, dated 2014).

Assays:
Type in all cases: biochemical
PAK3 = PAK3 (Homo sapiens, UniProt O75914); assay: Z'Lyte fluorescence-based (FRET) kinase assay, PAK3; conditions: 100 μM ATP (Km apparent), 1 hr room temperature, 1% DMSO
Protocol: (§1) A fluorescence-based assay format is used to determine IC50 values of test compounds in vitro. Purified PAK kinase is incubated with ATP, and a test compound at various concentrations and a substrate peptide containing two fluorophores. In a second step, the reaction mix is incubated with a site-specific protease that cleaves non-phosphorylated but not phosphorylated substrate peptide, disrupting the FRET signal generated by the two fluorophores in the cleaved peptide (Z′Lyte™ Kinase assay platform; Life Technologies).
(§2) Reagents: 50 mM HEPES, pH 7.5; 0.01% BRIJ-35; 10 mM MgCl2; 1 mM EGTA, 2 uM substrate peptide Ser/Thr20 (proprietary Life Technologies Sequence), PAK enzyme [2.42-30.8 ng for PAK1, 0.29-6 ng for PAK2, 1.5-20 ng for PAK3 and 0.1-0.86 ng for PAK4; actual enzyme amounts depend on lot activity of the enzyme preparation]
(§3) Test compounds are dissolved in DMSO at various concentrations; the final DMSO concentration in the assay reaction is 1%.
(§4) ATP concentration at Km apparent is used in the assay [50 μM ATP for PAK1 assay, 75 μM ATP for PAK2 assay, 100 μM ATP for PAK3 assay, 5 μM ATP for PAK-4 assay] in a total assay volume of […] Assay reactions are incubated at room temperature for 1 hr. Following the kinase reaction, 5 μl of 1:256 dilution of development solution A (Life Technologies) is added and the reaction mix is incubated for an additional 1 hr at room temperature.
(§5) Plates are analyzed in a standard fluorescence plate reader (Tecan or equivalent) using an excitation wavelength of 400 nm and emission wavelengths of 445 nm and 520 nm. Inhibition of kinase reaction is determined by emission ratio=emission@445 nm/emission@520 nm

PAK2 = PAK2 (Homo sapiens, UniProt Q13177); assay: Z'Lyte fluorescence-based (FRET) kinase assay, PAK2; conditions: 75 μM ATP (Km apparent), 1 hr room temperature, 1% DMSO
PAK2, sequence (Q13177 whole entry): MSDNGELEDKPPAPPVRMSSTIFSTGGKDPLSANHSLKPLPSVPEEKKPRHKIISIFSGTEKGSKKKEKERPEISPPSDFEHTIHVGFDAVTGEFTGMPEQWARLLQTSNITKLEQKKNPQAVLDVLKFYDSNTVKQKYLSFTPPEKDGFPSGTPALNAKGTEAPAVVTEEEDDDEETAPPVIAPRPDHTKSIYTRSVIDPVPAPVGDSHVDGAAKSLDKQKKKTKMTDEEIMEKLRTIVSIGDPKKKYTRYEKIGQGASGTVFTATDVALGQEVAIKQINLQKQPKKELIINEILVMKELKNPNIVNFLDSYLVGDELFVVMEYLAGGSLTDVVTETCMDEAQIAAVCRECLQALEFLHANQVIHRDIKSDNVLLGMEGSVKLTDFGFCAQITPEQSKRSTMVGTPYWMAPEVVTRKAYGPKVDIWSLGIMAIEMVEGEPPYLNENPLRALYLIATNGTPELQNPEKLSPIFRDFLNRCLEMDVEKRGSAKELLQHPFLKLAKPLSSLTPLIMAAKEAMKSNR
Protocol: as §1, §2, §3, §4, §5

PAK1 = PAK1 (Homo sapiens, UniProt Q13153); assay: Z'Lyte fluorescence-based (FRET) kinase assay, PAK1; conditions: 50 μM ATP (Km apparent), 1 hr room temperature, 1% DMSO
PAK1, sequence (Q13153 whole entry): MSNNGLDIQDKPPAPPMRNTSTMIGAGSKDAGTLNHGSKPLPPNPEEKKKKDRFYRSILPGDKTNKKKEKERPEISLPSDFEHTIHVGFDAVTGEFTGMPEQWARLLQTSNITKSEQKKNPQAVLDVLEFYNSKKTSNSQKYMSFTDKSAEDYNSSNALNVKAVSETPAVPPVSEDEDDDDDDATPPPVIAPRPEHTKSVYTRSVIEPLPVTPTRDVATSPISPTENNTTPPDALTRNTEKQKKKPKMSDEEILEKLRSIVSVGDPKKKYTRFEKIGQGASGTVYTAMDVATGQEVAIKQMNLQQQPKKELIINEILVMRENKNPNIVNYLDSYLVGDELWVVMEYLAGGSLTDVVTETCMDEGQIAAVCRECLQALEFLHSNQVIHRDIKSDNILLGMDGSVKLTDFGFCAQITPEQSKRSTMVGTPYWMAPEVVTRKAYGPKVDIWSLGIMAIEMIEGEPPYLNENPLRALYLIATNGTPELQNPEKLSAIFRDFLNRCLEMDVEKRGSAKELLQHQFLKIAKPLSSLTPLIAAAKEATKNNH
Protocol: as §1, §2, §3, §4, §5

PAK1, PAK2, PAK3, PAK-4 = assay: PAK isoform inhibition profile of example compounds; conditions: classification of example compounds in the description; underlying IC50 data in Table 8
From the text: In some embodiments, the PAK inhibitor is a Group I PAK inhibitor that inhibits, for example, one or more Group I PAK polypeptides, for example, PAK1, PAK2, and/or PAK3. […] In some embodiments, the PAK inhibitor is a PAK2 inhibitor. In some embodiments, the PAK inhibitor is a PAK3 inhibitor. In some embodiments, the PAK inhibitor is a mixed PAK1/PAK3 inhibitor. […] In some embodiments, the PAK inhibitor is a Group II PAK inhibitor that inhibits one or more Group II PAK polypeptides, for example PAK-4, PAK5, and/or PAK6. In some embodiments, the PAK inhibitor is a PAK4 inhibitor. In some embodiments, the PAK inhibitor is a PAK5 inhibitor. In some embodiments, the PAK inhibitor is a PAK6 inhibitor.
as §1, §2, §3, §4, §5

PAK4 = PAK4 (Homo sapiens, UniProt O96013); assay: Z'Lyte fluorescence-based (FRET) kinase assay, PAK4; conditions: 5 μM ATP (Km apparent), 1 hr room temperature, 1% DMSO
PAK4, sequence (O96013 whole entry): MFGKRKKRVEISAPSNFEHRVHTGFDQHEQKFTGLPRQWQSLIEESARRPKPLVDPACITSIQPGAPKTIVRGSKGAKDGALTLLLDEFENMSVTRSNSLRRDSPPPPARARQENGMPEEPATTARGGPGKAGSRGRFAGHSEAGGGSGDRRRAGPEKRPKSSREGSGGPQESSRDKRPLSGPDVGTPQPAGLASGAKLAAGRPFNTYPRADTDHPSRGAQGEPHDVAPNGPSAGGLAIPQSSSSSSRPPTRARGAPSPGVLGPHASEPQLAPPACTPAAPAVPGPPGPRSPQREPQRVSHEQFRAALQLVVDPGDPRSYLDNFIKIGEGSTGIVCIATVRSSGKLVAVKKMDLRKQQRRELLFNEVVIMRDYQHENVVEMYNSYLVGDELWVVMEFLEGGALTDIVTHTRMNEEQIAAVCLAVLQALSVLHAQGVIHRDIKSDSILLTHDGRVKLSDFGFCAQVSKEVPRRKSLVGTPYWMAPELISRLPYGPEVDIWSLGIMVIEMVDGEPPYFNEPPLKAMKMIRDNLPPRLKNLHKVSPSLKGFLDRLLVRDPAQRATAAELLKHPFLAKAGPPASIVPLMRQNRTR
Protocol: as §1, §2, §3, §4, §5

PAK3, sequence (O75914 whole entry): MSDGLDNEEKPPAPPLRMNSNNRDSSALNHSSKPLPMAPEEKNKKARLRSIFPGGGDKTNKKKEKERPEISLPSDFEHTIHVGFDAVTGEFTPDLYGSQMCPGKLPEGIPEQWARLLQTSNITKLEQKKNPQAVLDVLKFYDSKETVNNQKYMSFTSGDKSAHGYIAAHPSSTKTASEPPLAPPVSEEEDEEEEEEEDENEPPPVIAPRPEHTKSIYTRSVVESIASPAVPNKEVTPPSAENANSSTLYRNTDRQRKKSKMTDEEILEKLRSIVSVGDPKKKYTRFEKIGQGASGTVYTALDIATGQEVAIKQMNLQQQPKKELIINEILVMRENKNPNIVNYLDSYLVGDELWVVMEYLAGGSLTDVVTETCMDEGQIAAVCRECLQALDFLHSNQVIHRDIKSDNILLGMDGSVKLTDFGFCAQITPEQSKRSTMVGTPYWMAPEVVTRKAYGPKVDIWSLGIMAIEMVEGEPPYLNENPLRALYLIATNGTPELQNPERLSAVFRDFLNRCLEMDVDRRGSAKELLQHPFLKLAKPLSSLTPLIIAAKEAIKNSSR

| Structure (SMILES) | IC50 (PAK3) [nM] | IC50 (PAK2) [nM] | IC50 (PAK1) [nM] | PAK inhibitor type (isoform profile) (PAK1, PAK2, PAK3, PAK-4) | IC50 (PAK4) [nM] |
| --- | --- | --- | --- | --- | --- |
| NCCNc1ccc(-c2ccnc(Nc3ccc(N4CCNCC4)cc3)n2)cn1 [Compound 111] | 1000 to 10000 | 1000 to 10000 | < 1000 | mixed PAK1/PAK-4 inhibitor | < 1000 |
| O=c1ccc2cnc(Nc3ccc(N4CCNCC4)c(F)c3)nc2n1Cc1ccccc1-c1cccs1 [Compound 78] | < 1000 | < 1000 | < 1000 | mixed PAK1/PAK2/PAK3/PAK-4 inhibitor | < 1000 |
| Cc1noc(-c2ccccc2Cn2c(=O)ccc3cnc(Nc4ccc(N5CCN(C)CC5)cc4)nc32)n1 [Compound 75] | 1000 to 10000 | 1000 to 10000 | < 1000 | PAK1 inhibitor | 1000 to 10000 |
| CN1CCN(c2ccc(Nc3ncc4ccc(=O)n(Cc5ccccc5N5CCOCC5)c4n3)cc2)CC1 [Compound 73] | < 1000 | < 1000 | < 1000 | mixed PAK1/PAK2/PAK3/PAK-4 inhibitor | < 1000 |
| CC(C)CNc1ccc(-c2ccnc(Nc3ccc(N4CCN(C)CC4)cc3)n2)cn1 [Compound 104] | > 10000 | 1000 to 10000 | 1000 to 10000 |  | < 1000 |
| CN1CCN(c2ccc(Nc3ncc4ccc(=O)n(Cc5ccccc5Br)c4n3)cc2)CC1 [Compound 27, 8-(2-bromobenzyl)-2-(4-(4-methylpiperazin-1-yl)phenylamino)pyrido[2,3-d]pyrimidin-7(8H)-one] | < 1000 | < 1000 | < 1000 | mixed PAK1/PAK2/PAK3/PAK-4 inhibitor | < 1000 |
| CC(=O)N1CCN(c2ccc(Nc3nccc(-c4ccc(NCCN)nc4)n3)cc2)CC1 [Compound 115] | > 10000 | > 10000 | > 10000 |  | < 1000 |
| CN1CCN(c2ccc(Nc3ncc4cc(-c5ccccc5)c(=O)n(Cc5ccccc5C(F)(F)F)c4n3)cc2)CC1 [Compound 119] | < 1000 | < 1000 | < 1000 | inhibits all three Group I PAK isoforms (PAK1, 2 and PAK3) with equal or similar potency | > 10000 |
| CN1CCN(c2ccc(Nc3nccc(-c4ccc(NCCN)nc4)n3)cc2)CC1.Cl [Compound 94, N-(5-{2-[4-(4-Methyl-piperazin-1-yl)-phenylamino]-pyrimidin-4-yl}-pyridin-2-yl)-ethane-1,2-diamine hydrochloride] | 1000 to 10000 | 1000 to 10000 | < 1000 | mixed PAK1/PAK-4 inhibitor | < 1000 |
| COc1cccc2c1C(n1c(=O)ccc3cnc(Nc4ccc(N5CCN(C)CC5)cc4)nc31)CC2 (stereo not drawn) [Compound 1, 8-(7-methoxy-2,3-dihydro-1H-inden-1-yl)-2-(4-(4-methylpiperazin-1-yl)phenylamino)pyrido[2,3-d]pyrimidin-7(8H)-one] | > 10000 | > 10000 | 1000 to 10000 |  | 1000 to 10000 |
| CN1CCN(c2ccc(Nc3ncc4ccc(=O)n(Cc5ccccc5S(=O)(=O)N5CCOCC5)c4n3)cc2)CC1 [Compound 74] | < 1000 | < 1000 | < 1000 | mixed PAK1/PAK2/PAK3/PAK-4 inhibitor | < 1000 |
| CN1CCN(c2ccc(Nc3ncc4ccc(=O)n(CCc5ccccc5C(F)(F)F)c4n3)cc2)CC1 [Compound 66] | 1000 to 10000 | < 1000 | < 1000 | mixed PAK1/PAK2/PAK-4 inhibitor | < 1000 |
| COc1cccc(F)c1Cn1c(=O)ccc2cnc(Nc3ccc(N4CCN(C)CC4)cc3)nc21 [Compound 61] | 1000 to 10000 | 1000 to 10000 | < 1000 | mixed PAK1/PAK-4 inhibitor | < 1000 |
| CN1CCN(c2ccc(Nc3ncc4ccc(=O)n(Cc5c(Cl)cccc5C5CC5)c4n3)cc2)CC1 [Compound 84] | < 1000 | < 1000 | < 1000 | inhibits all three Group I PAK isoforms (PAK1, 2 and PAK3) with equal or similar potency | 1000 to 10000 |
| Cc1ccc(F)cc1Cn1c(=O)ccc2cnc(Nc3ccc(N4CCN(C)CC4)cc3)nc21 [Compound 59] | 1000 to 10000 | 1000 to 10000 | < 1000 | mixed PAK1/PAK-4 inhibitor | < 1000 |
| CCNc1ccc(-c2ccnc(Nc3ccc(N4CCN(C)CC4)cc3)n2)cn1 [Compound 109] | > 10000 | > 10000 | 1000 to 10000 |  | < 1000 |
| CN1CCN(c2ccc(Nc3nccc(-c4ccc(NCCN)nc4)n3)cc2F)CC1 [Compound 113] | 1000 to 10000 | 1000 to 10000 | < 1000 | mixed PAK1/PAK-4 inhibitor | < 1000 |
| COc1cc(Nc2nccc(-c3ccc(NCCN)nc3)n2)cc(OC)c1OC [Compound 95] | 1000 to 10000 | 1000 to 10000 | < 1000 |  | < 1000 |
| CC(C)Oc1ccccc1Cn1c(=O)ccc2cnc(Nc3ccc(N4CCN(C)CC4)cc3)nc21 [Compound 69] | < 1000 | < 1000 | < 1000 | mixed PAK1/PAK2/PAK3/PAK-4 inhibitor | < 1000 |
| Cc1cccc(F)c1Cn1c(=O)ccc2cnc(Nc3ccc(N4CCN(C)CC4)cc3)nc21 [Compound 65] | < 1000 | < 1000 | < 1000 | mixed PAK1/PAK2/PAK3/PAK-4 inhibitor | < 1000 |
| CN1CCN(c2ccc(Nc3ncc4ccc(=O)n(Cc5c(Cl)cccc5-c5ccccc5)c4n3)cc2)CC1 [Compound 82] | > 10000 | > 10000 | 1000 to 10000 |  | 1000 to 10000 |
| Cc1c(F)cccc1Cn1c(=O)ccc2cnc(Nc3ccc(N4CCN(C)CC4)cc3)nc21 [Compound 49] | > 10000 | 1000 to 10000 | < 1000 | PAK1 inhibitor | 1000 to 10000 |
| CN1CCN(c2ccc(Nc3ncc4ccc(=O)n(Cc5c(F)cccc5Br)c4n3)cc2)CC1 [Compound 79] | < 1000 | < 1000 | < 1000 | mixed PAK1/PAK2/PAK3/PAK-4 inhibitor | < 1000 |
| Cc1noc(-c2ccccc2Cn2c(=O)ccc3cnc(Nc4ccc(N5CCNCC5)c(F)c4)nc32)n1 [Compound 80] | 1000 to 10000 | 1000 to 10000 | < 1000 | PAK1 inhibitor | 1000 to 10000 |
| CN1CCN(c2cccc(Nc3nccc(-c4ccc(NCCN)nc4)n3)c2)CC1 [Compound 112] | > 10000 | 1000 to 10000 | 1000 to 10000 |  | < 1000 |
| CC(c1ccccc1C(F)(F)F)n1c(=O)ccc2cnc(Nc3ccc(N4CCN(C)CC4)cc3)nc21 (stereo not drawn) [Compound 70] | > 10000 | > 10000 | 1000 to 10000 |  | 1000 to 10000 |
| Cc1cc(Nc2nccc(-c3ccc(NCCN4CCCCC4)nc3)n2)ccc1N1CCN(C)CC1 [Compound 107] | > 10000 | 1000 to 10000 | 1000 to 10000 |  | < 1000 |
| CN1CCN(c2ccc(Nc3nccc(-c4ccc(N)nc4)n3)cc2)CC1 [Compound 108] | > 10000 | 1000 to 10000 | 1000 to 10000 |  | 1000 to 10000 |
| CN1CCN(c2ccc(Nc3ncc4ccc(=O)n(Cc5ccccc5-c5cc(C(F)(F)F)nn5C)c4n3)cc2)CC1 [Compound 76] | 1000 to 10000 | 1000 to 10000 | 1000 to 10000 |  | > 10000 |
| CN1CCN(c2ccc(Nc3nccc(-c4ccc(NCCN5CCCCC5)nc4)n3)cc2)CC1 [Compound 100] | > 10000 | 1000 to 10000 | 1000 to 10000 |  | < 1000 |
